Results reported in patent publication US11272841B2, “Indicator fluids, systems, and methods for assessing movement of substances within, to or from a cerebrospinal fluid, brain or spinal cord compartment of a cranio-spinal cavity of a human” (BRAINWIDESOLUTIONS AS, priority 2017, dated 2022).
“And” between values parts separate entries of the source, which are not always exact repeats. Equal entries are not always repeated. Marks after values point to notes of the source that are not given here.

Assay: Repeated standardized T1-weighted MRI: signal units (SU) in ROIs of CSF, venous space and brain tissue after intrathecal gadobutrol, iNPH versus reference patients (Tables 2-4, FIG. 14b, 16);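 for Max Increase in SU of T1 signal, numerical change: Gadobutrol 0.5 mL of 1.0 mmol/mL given intrathecally into CSF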;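 for Max Increase in SU of T1 signal, percentage change: Gadobutrol 0.5 mL of 1.0 mmol/mL given intrathecally into CSF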
Format: in vivo, human
Conditions: for Max Increase in SU of T1 signal, numerical change / Max Increase in SU of T1 signal, percentage change: one patient per row; for Average indication signal within brain tissue ROI: one individual, FIG. 14b
Procedure: The different features of Aspect 2 are based on novel in-vivo observations in humans. […] In the following paragraphs, these novel observations in humans are commented on in more detail. In these studies, the MRI contrast agent gadobutrol served as indicator fluid and MRI SUs were indication signals. MRI T1 weighted signal units were measured when gadobutrol was present within CSF after having been administered to the CSF compartment, and were compared with MR images having identical sequence parameter settings and with no gadobutrol present in CSF. […] With a MW of 605 Da, gadobutrol is a rather large molecule in comparison to the MW of water (H2O) molecule, which is 18 Da. Clearance of gadobutrol is then indicative of clearance of other substances with similar properties.
We explored both movement of the contrast agent within, to, and from the cranio-spinal cavity, including CSF, brain and spinal cord compartment, and from the cranio-spinal cavity to extra-cranial LNs. With gadobutrol present within CSF, blood level concentrations of contrast agents were determined at various time point. The repeated MRI acquisitions made it possible to create clearance curves for one or more pixels, defined by ROIs. ROIs were placed within CSF compartments, brain and spinal cord tissue compartments, and extracranial LN tissue compartments. By means of MRI, we could create graphic curves illustrating clearance of substances (clearance illustrating curves) for defined ROIs built up of a defied number of pixels for each individual. For details of said clearance curves, see FIG. 7. The establishment of clearance curves was dependent on repeated MRI acquisitions over a long period.
Using MRI SUs, we created clearance illustrating curves, see FIG. 7, for the individual patients as well as for groups of individuals. Tables 2-4 illustrate various examples of parameter values of the clearance illustrating curves.
Table 2, as discussed with FIG. 2, illustrates how maximum increase in SUs varies between individuals and patient groups. Tables 3 and 4 compare such clearance curve parameters from two patient groups, namely iNPH and reference (i.e. control) patients, illustrating inter-individual differences and differences between patient groups. These patient groups represent no limitation of the invention as it may be used in various patient groups such as Alzheimer's and dementia in general, brain tumor (e.g. astrocytoma), multiple sclerosis and inflammatory brain disease, stroke (brain infarction or bleeds), sleep disturbances, neurodegenerative disease, CSF circulation disorders, traumatic brain injury, neurometabolic diseases, glaucoma, chronic headache and migraine, and in assessment of ageing in general.
Even though perfect match of ROIs of repeated images may be difficult to obtain, the second aspect of the invention is facilitated by that image acquisition parameters at repeated MRI acquisitions are kept fixed and thus standardized. […] Further, to make best possible alignments of pixels, methods for alignment of repeated MRI acquisitions need to be implemented. Methods for alignment of repeated MRI images belong to prior art. Aids to improve alignment may incorporate landmark locations such as the cranial vault, pineal gland, and ventricular system.
Each image acquisition lasted 6 minutes and 29 seconds.

[1] = CSF space: Lateral Ventricle, iNPH
[2] = CSF space: Precentral sulcus, Reference
[3] = CSF space: Precentral sulcus, iNPH
[4] = CSF space: Sylvian fissure, Reference
[5] = CSF space: Sylvian fissure, iNPH
[6] = Central venous space: Sagittal sinus/confluence, Reference
[7] = Central venous space: Sagittal sinus/confluence, iNPH
[8] = Inferior frontal gyrus (IFG), REF
[9] = Inferior frontal gyrus (IFG), iNPH

## O=C([O-])CN1CCN(CC(=O)[O-])CCN([C@H](CO)[C@H](O)CO)CCN(CC(=O)[O-])CC1.[Gd+3] (racemic) [gadobutrol]
[1]
  Clearance coefficient (SU/min): −0.05 ± 0.04 SU/min
  Clearance time: 1115.1 ± 46.3 min
  Enhancement coefficient (SU/min): 0.41 SU/min
  Max increase (SU): 168.5 ± 99.8^b SU
  Max reduction (SU): −57.3 ± 48.9 SU
  Time to peak: 843.4 ± 560.2 min
CSF space: Pons, Reference
  Clearance coefficient (SU/min): −0.25 ± 0.08 SU/min
  Clearance time: 1261.5 ± 137.0 min
  Enhancement coefficient (SU/min): 10.8 SU/min
  Max reduction (SU): −313.3 ± 105.3 SU
  Time to peak: 159.8 ± 148.9 min
CSF space: Pons, iNPH
  Clearance coefficient (SU/min): −0.15 ± 0.08^b SU/min
  Clearance time: 1207.9 ± 114.8 min
  Enhancement coefficient (SU/min): 2.4 SU/min
  Max reduction (SU): −177.9 ± 95.5^b SU
  Time to peak: 230.9 ± 98.4 min
[2]
  Enhancement coefficient (SU/min): 0.29 SU/min
  Max increase (SU): 87.8 ± 99.3 SU
  Time to peak: 475.0 ± 601.9 min
[3]
  Enhancement coefficient (SU/min): 0.10 SU/min
  Max increase (SU): 131.1 ± 94.1 SU
  Time to peak (min): 1254.7 ± 483.8^b min
[4]
  Clearance coefficient (SU/min): −0.12 ± 0.06 SU/min
  Clearance time: 1162.6 ± 78.1 min
  Enhancement coefficient (SU/min): 0.9 SU/min
  Max increase (SU): 204.2 ± 104.4 SU
  Max reduction (SU): −133.0 ± 68.4 SU
  Time to peak: 258.6 ± 114.8 min
[5]
  Clearance coefficient (SU/min): −0.06 ± 0.05^a SU/min
  Clearance time: 1123.7 ± 41.1 min
  Enhancement coefficient (SU/min): 0.57 SU/min
  Max increase (SU): 226.2 ± 100.2 SU
  Max reduction (SU): −68.0 ± 51.2^a SU
  Time to peak (min): 689.0 ± 536.3^a min
[6]
  Clearance coefficient (SU/min): −0.008 ± 0.003 SU/min
  Clearance time: 1247.3 ± 175.9 min
  Enhancement coefficient (SU/min): 0.41 SU/min
  Max increase (SU): 7.4 ± 9.6 SU
  Max reduction (SU): −9.5 ± 3.9 SU
  Time to peak: 524.4 ± 591.3 min
[7]
  Clearance coefficient (SU/min): −0.01 ± 0.006 SU/min
  Clearance time: 1287.4 ± 150.9 min
  Enhancement coefficient (SU/min): 0.16 SU/min
  Max increase (SU): 8.1 ± 8.0 SU
  Max reduction (SU): −12.1 ± 6.7 SU
  Time to peak: 350.2 ± 457.3 min
Frontal horn, REF
  Max Increase in SU of T1 signal, numerical change: 23 SU and 7 (7%) SU and 4 SU and 4 (4%) SU and 3 (3%) SU and 9 SU and 17 SU
  Max Increase in SU of T1 signal, percentage change: 37% and 7 (7%) and 3% and 4 (4%) and 3 (3%) and 8% and 21%
Frontal horn, iNPH
  Max Increase in SU of T1 signal, numerical change: 13 SU and 103 SU and 35 SU and 76 SU and 92 SU and 50 SU and 2 (2%) SU and 49 SU and 53 SU and 42 SU and 8 SU and 19 SU and 21 SU
  Max Increase in SU of T1 signal, percentage change: 15% (2×) and 204% and 40% and 159% and 131% and 98% and 2 (2%) and 126% and 110% and 70% and 22% and 23%
[8]
  Max Increase in SU of T1 signal, numerical change: 68 SU and 5 (5%) SU and 24 SU and 13 SU and 23 SU and 37 SU and 18 SU
  Max Increase in SU of T1 signal, percentage change: 80% and 5 (5%) and 27% and 14% and 25% and 41% and 21%
[9]
  Max Increase in SU of T1 signal, numerical change: 70 SU and 56 SU and 32 SU and 51 SU and 74 SU and 21 SU and 24 SU and 36 SU and 59 SU and 10 SU (2×) and −1 (−1%) SU and 25 SU
  Max Increase in SU of T1 signal, percentage change: 83% and 68% (2×) and 38% and 63% and 95% and 23% and 31% and 46% and 12% and −1 (−1%) and 11% and 28%
Precentral gyrus, REF
  Max Increase in SU of T1 signal, numerical change: 10 SU and 1 (1%) SU and 8 SU and 2 (2%) SU and 6 SU and 34 SU and 3 SU
  Max Increase in SU of T1 signal, percentage change: 12% and 1 (1%) and 9% and 2 (2%) and 7% and 41% and 4%
Precentral gyrus, iNPH
  Max Increase in SU of T1 signal, numerical change: 28 SU and 7 SU and 7 (7%) SU and 2 (2%) SU (2×) and 18 SU and 5 (5%) SU and 8 SU and 2 SU and 6 SU (2×) and 4 SU and 3 SU
  Max Increase in SU of T1 signal, percentage change: 32% and 8% and 7 (7%) and 2 (2%) (2×) and 22% and 5 (5%) and 10% and 3% and 7% (2×) and 5% and 4%
Thalamus, REF
  Max Increase in SU of T1 signal, numerical change: 23 SU and 4 (4%) SU and 3 SU and 2 (2%) SU and 13 (13%) SU (2×) and 8 SU
  Max Increase in SU of T1 signal, percentage change: 26% and 4 (4%) and 2% and 2 (2%) and 13 (13%) (2×) and 9%
Thalamus, iNPH
  Max Increase in SU of T1 signal, numerical change: 16 SU and 23 SU and 9 SU (2×) and 14 SU and 25 SU and 4 (4%) SU and 10 SU and 19 SU and 7 SU and 2 (2%) SU and 12 SU (2×)
  Max Increase in SU of T1 signal, percentage change: 18% and 24% and 11% (2×) and 17% and 28% and 4 (4%) and 12% and 21% and 8% and 2 (2%) and 14% and 13%
Brain tissue Pons, REF
  Max Increase in SU of T1 signal, numerical change: 20 SU and 5 (5%) SU (2×) and 3 (3%) SU and 9 (9%) SU and 7 (7%) SU and 9 SU
  Max Increase in SU of T1 signal, percentage change: 21% and 5 (5%) (2×) and 3 (3%) and 9 (9%) and 7 (7%) and 10%
Brain tissue Pons, iNPH
  Max Increase in SU of T1 signal, numerical change: 17 (17%) SU and 24 (24%) SU and 15 SU and 21 SU and 14 (14%) SU and 4 (4%) SU (2×) and 9 SU (2×) and 18 (18%) SU and 3 (3%) SU and 2 (2%) SU and 6 (6%) SU
  Max Increase in SU of T1 signal, percentage change: 17 (17%) and 24 (24%) and 16% and 24% and 14 (14%) and 4 (4%) (2×) and 10% (2×) and 18 (18%) and 3 (3%) and 2 (2%) and 6 (6%)
Entorhinal cortex, FIG. 16h, intrathecal gadobutrol present for 24 hours (46 SU without)
  SU within ROI: 136 SU
3 hours after intrathecal gadobutrol (80 SU without gadobutrol)
  Average indication signal within brain tissue ROI: 83 SU
9 hours after intrathecal gadobutrol
  Average indication signal within brain tissue ROI: 103 SU
24 hours after intrathecal gadobutrol
  Average indication signal within brain tissue ROI: 107 SU
Subcortical area of entorhinal cortex, FIG. 16f, intrathecal gadobutrol present for 24 hours (109 SU without)
  SU within ROI: 180 SU
